Measured values taken from publication PMC10504751, “Chalcone/1,3,4-Oxadiazole/Benzimidazole hybrids as novel anti-proliferative agents inducing apoptosis and inhibiting EGFR & BRAFV^600E” (BMC Chemistry, 2023).
Read-outs that look alike come from different tables or passages of the source.

How the values were obtained:
Test in all cases: NCI one-dose SRB anti-proliferative screen
Type in all cases: cell-based
[1] = tested on: NCI-H322M; settings: Homo sapiens, read-out: Cell growth inhibition %
Outline: (§1)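 A sixty-line panel from nine tumour subpanels received each compound at 10 µM in a single-dose format; proliferation was then determined by SRB colorimetry.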

[2] = tested on: DU-145; settings: Homo sapiens, read-out: Cell growth inhibition %
Outline: as §1

[3] = tested on: KM12; settings: Homo sapiens, read-out: Cell growth inhibition %
Outline: as §1

[4] = tested on: SF-268; settings: Homo sapiens, read-out: Cell growth inhibition %
Outline: as §1

[5] = tested on: MDA-MB-231/ATCC; settings: Homo sapiens, read-out: Cell growth inhibition %
Outline: as §1

[6] = tested on: 786-0; settings: Homo sapiens, read-out: Cell growth inhibition %
Outline: as §1

[7] = tested on: HT29; settings: Homo sapiens, HT-29, read-out: Cell growth inhibition %
Outline: as §1

[8] = tested on: NCI/ADR-RES; settings: Homo sapiens, read-out: Cell growth inhibition %
Outline: as §1

[9] = tested on: SF-295; settings: Homo sapiens, read-out: Cell growth inhibition %
Outline: as §1

[10] = tested on: TK-10; settings: Homo sapiens, read-out: Cell growth inhibition %
Outline: as §1

[11] = tested on: A498; settings: Homo sapiens, read-out: Cell growth inhibition %
Outline: as §1

[12] = tested on: OVCAR-4; settings: Homo sapiens, read-out: Cell growth inhibition %
Outline: as §1

[13] = tested on: SNB-19; settings: Homo sapiens, read-out: Cell growth inhibition %
Outline: as §1

[14] = tested on: HL-60(TB); settings: Homo sapiens, read-out: Cell growth inhibition %
Outline: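 Activity reflects a single-point exposure at 10 µM, with cell mass determined by a sulforhodamine B dye assay.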

[15] = tested on: OVCAR-3; settings: Homo sapiens, read-out: Cell growth inhibition %
Outline: as §1

[16] = tested on: NCI-H226; settings: Homo sapiens, read-out: Cell growth inhibition %
Outline: as §1

[17] = tested on: SK-MEL-5; settings: Homo sapiens, read-out: Cell growth inhibition %
Outline: as §1

[18] = tested on: HOP-92; settings: Homo sapiens, read-out: Cell growth inhibition %
Outline: as §1

[19] = tested on: NCI-H460; settings: Homo sapiens, read-out: Cell growth inhibition %
Outline: as §1

[20] = tested on: SR; settings: Homo sapiens, read-out: Cell growth inhibition %
Outline: as §1

[21] = tested on: NCI-H23; settings: Homo sapiens, read-out: Cell growth inhibition %
Outline: as §1

[22] = tested on: SF-539; settings: Homo sapiens, read-out: Cell growth inhibition %
Outline: as §1

[23] = tested on: ACHN; settings: Homo sapiens, read-out: Cell growth inhibition %
Outline: as §1

[24] = tested on: U251; settings: Homo sapiens, U-251, read-out: Cell growth inhibition %
Outline: as §1

[25] = tested on: MDA-MB-468; settings: Homo sapiens, read-out: Cell growth inhibition %
Outline: as §1

[26] = tested on: SW-620; settings: Homo sapiens, read-out: Cell growth inhibition %
Outline: as §1

[27] = tested on: HCC-2998; settings: Homo sapiens, read-out: Cell growth inhibition %
Outline: as §1

[28] = tested on: LOX IMVI; settings: Homo sapiens; for inhibition at 10 µM: read-out: Cell growth inhibition %
Outline: as §1

[29] = tested on: CAKI-1; settings: Homo sapiens, read-out: Cell growth inhibition %
Outline: as §1

[30] = NCI-H322M, Non-Small Cell Lung Cancer, NCI one dose
[31] = DU-145, Prostate Cancer, NCI one dose
[32] = KM12, Colon cancer, NCI one dose
[33] = SF-268, CNS Cancer, NCI one dose
[34] = MDA-MB-231/ATCC, Breast cancer, NCI one dose
[35] = 786-0, Renal cancer, NCI one dose
[36] = HT29, Colon cancer, NCI one dose
[37] = NCI/ADR-RES, Ovarian Cancer, NCI one dose
[38] = SF-295, CNS Cancer, NCI one dose
[39] = TK-10, Renal cancer, NCI one dose
[40] = A498, Renal cancer, NCI one dose
[41] = OVCAR-4, Ovarian Cancer, NCI one dose
[42] = SNB-19, CNS Cancer, NCI one dose
[43] = HL-60(TB), Leukemia, NCI one dose
[44] = OVCAR-3, Ovarian Cancer, NCI one dose
[45] = NCI-H226, Non-Small Cell Lung Cancer, NCI one dose
[46] = SK-MEL-5, Melanoma, NCI one dose
[47] = HOP-92, Non-Small Cell Lung Cancer, NCI one dose
[48] = NCI-H460, Non-Small Cell Lung Cancer, NCI one dose
[49] = NCI-H23, Non-Small Cell Lung Cancer, NCI one dose
[50] = SF-539, CNS Cancer, NCI one dose
[51] = ACHN, Renal cancer, NCI one dose
[52] = MDA-MB-468, Breast cancer, NCI one dose
[53] = SW-620, Colon cancer, NCI one dose
[54] = HCC-2998, Colon cancer, NCI one dose
[55] = CAKI-1, Renal cancer, NCI one dose

SMILES: COc1cc(-c2nc3cc(-c4nnc(SCC(=O)Nc5ccc(C(=O)/C=C/c6ccccc6)cc5)o4)ccc3[nH]2)cc(OC)c1OC [Compound 7u, 2-{5-[2-(3,4,5-Trimethoxyphenyl)-1 H-benzo[d]imidazol-5-yl]-1,3,4-oxadiazol-2-ylthio}-N-{4-[(E)-3-phenylacryloyl]phenyl}acetamide]
- inhibition at 10 µM ([1]; NCI-H322M (Non-Small Cell Lung Cancer), NCI one dose 10 µM): 0%
- inhibition at 10 µM ([2]; DU-145 (Prostate Cancer), NCI one dose 10 µM): 0%
- inhibition at 10 µM ([3]; KM12 (Colon Cancer), NCI one dose 10 µM): 0.98%
- inhibition at 10 µM ([4]; SF-268 (CNS Cancer), NCI one dose 10 µM): 0%
- inhibition at 10 µM ([5]; MDA-MB-231/ATCC (Breast Cancer), NCI one dose 10 µM): 4.05%
- inhibition at 10 µM ([6]; 786-0 (Renal Cancer), NCI one dose 10 µM): 0%
- inhibition at 10 µM ([7]; HT29 (Colon Cancer), NCI one dose 10 µM): 0%
- inhibition at 10 µM ([8]; NCI/ADR-RES (Ovarian Cancer), NCI one dose 10 µM): 0%
- inhibition at 10 µM ([9]; SF-295 (CNS Cancer), NCI one dose 10 µM): 2%
- inhibition at 10 µM ([10]; TK-10 (Renal Cancer), NCI one dose 10 µM): 0%
- inhibition at 10 µM ([11]; A498 (Renal Cancer), NCI one dose 10 µM): 0%
- inhibition at 10 µM ([12]; OVCAR-4 (Ovarian Cancer), NCI one dose 10 µM): 0%
- inhibition at 10 µM ([13]; SNB-19 (CNS Cancer), NCI one dose 10 µM): 0%
- inhibition at 10 µM ([14]; HL-60(TB) (Leukemia), NCI one dose 10 µM): 5.25%
- inhibition at 10 µM ([15]; OVCAR-3 (Ovarian Cancer), NCI one dose 10 µM): 0%
- inhibition at 10 µM ([16]; NCI-H226 (Non-Small Cell Lung Cancer), NCI one dose 10 µM): 10.4%
- inhibition at 10 µM ([17]; SK-MEL-5 (Melanoma), NCI one dose 10 µM): 5.99%
- inhibition at 10 µM ([18]; HOP-92 (Non-Small Cell Lung Cancer), NCI one dose 10 µM): 9.74%
- inhibition at 10 µM ([19]; NCI-H460 (Non-Small Cell Lung Cancer), NCI one dose 10 µM): 0%
- inhibition at 10 µM ([20]; SR (Leukemia), NCI one dose 10 µM): 40.3%
- inhibition at 10 µM ([21]; NCI-H23 (Non-Small Cell Lung Cancer), NCI one dose 10 µM): 3.04%
- inhibition at 10 µM ([22]; SF-539 (CNS Cancer), NCI one dose 10 µM): 13.3%
- inhibition at 10 µM ([23]; ACHN (Renal Cancer), NCI one dose 10 µM): 1.08%
- inhibition at 10 µM ([24]; U251 (CNS Cancer), NCI one dose 10 µM): 9.89%
- inhibition at 10 µM ([25]; MDA-MB-468 (Breast Cancer), NCI one dose 10 µM): 0%
- inhibition at 10 µM ([26]; SW-620 (Colon Cancer), NCI one dose 10 µM): 0%
- inhibition at 10 µM ([27]; HCC-2998 (Colon Cancer), NCI one dose 10 µM): 0%
- inhibition at 10 µM ([28]; LOX IMIV (Melanoma), NCI one dose 10 µM): 22%
- inhibition at 10 µM ([29]; CAKI-1 (Renal Cancer), NCI one dose 10 µM): 0%

SMILES: COc1cc(/C=C/C(=O)c2ccc(NC(=O)CSc3nnc(-c4ccc5[nH]c(-c6ccccc6)nc5c4)o3)cc2)cc(OC)c1OC [Compound 7e, 2-{5-[2-Phenyl-1 H-benzo[d]imidazol-5-yl]-1,3,4-oxadiazol-2-ylthio}-N-{4-[(E)-3-(3,4,5-trimethoxyphenyl)acryloyl]phenyl}acetamide]
- inhibition at 10 µM [1, 30]: 3.06%
- inhibition at 10 µM [2, 31]: 9.02%
- inhibition at 10 µM [3, 32]: 10%
- inhibition at 10 µM [4, 33]: 2.34%
- inhibition at 10 µM [5, 34]: 6.4%
- inhibition at 10 µM [6, 35]: 24.6%
- inhibition at 10 µM [7, 36]: 0%
- inhibition at 10 µM [8, 37]: 0%
- inhibition at 10 µM [9, 38]: 0%
- inhibition at 10 µM [10, 39]: 0%
- inhibition at 10 µM [11, 40]: 15.6%
- inhibition at 10 µM [12, 41]: 0.46%
- inhibition at 10 µM [13, 42]: 15.6%
- inhibition at 10 µM [14, 43]: 31%
- inhibition at 10 µM [15, 44]: 27.9%
- inhibition at 10 µM [16, 45]: 0.66%
- inhibition at 10 µM [17, 46]: 7.81%
- inhibition at 10 µM [18, 47]: 0%
- inhibition at 10 µM [19, 48]: 7.53%
- inhibition at 10 µM ([20]; SR, Leukemia, NCI one dose): 63.2%
- inhibition at 10 µM [21, 49]: 7.28%
- inhibition at 10 µM [22, 50]: 17.5%
- inhibition at 10 µM [23, 51]: 0%
- inhibition at 10 µM ([24]; U251, CNS Cancer, NCI one dose): 19.4%
- inhibition at 10 µM [25, 52]: 5.09%
- inhibition at 10 µM [26, 53]: 1.21%
- inhibition at 10 µM [27, 54]: 0%
- activity at 10 µM ([28]; LOX IMVI (Melanoma), 10 µM one dose, read-out: Growth Percent): 56%
- inhibition at 10 µM ([28]; Melanoma, NCI one dose): 44%
- inhibition at 10 µM [29, 55]: 0%

SMILES: COc1ccc(/C=C/C(=O)c2ccc(NC(=O)CSc3nnc(-c4ccc5[nH]c(-c6ccccc6)nc5c4)o3)cc2)cc1OC [Compound 7d, 2-{5-[2-Phenyl-1 H-benzo[d]imidazol-5-yl]-1,3,4-oxadiazol-2-ylthio}-N-{4-[(E)-3-(3,4-dimethoxyphenyl)acryloyl]phenyl}acetamide]
- inhibition at 10 µM [1, 30]: 0%
- inhibition at 10 µM [2, 31]: 0%
- inhibition at 10 µM [3, 32]: 0%
- inhibition at 10 µM [4, 33]: 0%
- inhibition at 10 µM [5, 34]: 0%
- inhibition at 10 µM [6, 35]: 9.58%
- inhibition at 10 µM [7, 36]: 0%
- inhibition at 10 µM [8, 37]: 0%
- inhibition at 10 µM [9, 38]: 0%
- inhibition at 10 µM [10, 39]: 0%
- inhibition at 10 µM [11, 40]: 14.3%
- inhibition at 10 µM [12, 41]: 0%
- inhibition at 10 µM [13, 42]: 3.18%
- inhibition at 10 µM [14, 43]: 0%
- inhibition at 10 µM [15, 44]: 2.49%
- inhibition at 10 µM [16, 45]: 0%
- inhibition at 10 µM [17, 46]: 0%
- inhibition at 10 µM [18, 47]: 0%
- inhibition at 10 µM [19, 48]: 0%
- inhibition at 10 µM ([20]; SR, Leukemia, NCI one dose): 4.34%
- inhibition at 10 µM [21, 49]: 0%
- inhibition at 10 µM [22, 50]: 0.34%
- inhibition at 10 µM [23, 51]: 0%
- inhibition at 10 µM ([24]; U251, CNS Cancer, NCI one dose): 5.02%
- inhibition at 10 µM [25, 52]: 0%
- inhibition at 10 µM [26, 53]: 0%
- inhibition at 10 µM [27, 54]: 0%
- inhibition at 10 µM ([28]; Melanoma, NCI one dose): 13.5%
- inhibition at 10 µM [29, 55]: 0%
